Measurements from patent US20090047655A1, “Method Of Screening Candidate Drug” (priority 2004, published 2009).
Where two headings read alike, the source gives them in different places.

Legend:
[1] = mouse, in vivo; for AUC: uPA(+/+)/SCID
Source text: (§1) As for the chimeric mice, chimeric mice produced by Hiroshima Prefectural Institute of Industrial Science and Technology or PhoenixBio Co., Ltd. were used. To be more specific, mice in which human hepatocytes were engrafted and proliferated in the mouse liver were produced by transplanting human hepatocytes (IVT079, purchased from In Vitro Technology Inc., or BD51, purchased from BD Gentest Inc.) into the spleen of uPA(+/+)/SCID mice, which are mice having hepatic impairment and immunodeficiency. Mice in which 70% or more of the mouse liver had been replaced with human hepatocytes (high-replacement chimeric mice) and low-replacement chimeric mice in which although human hepatocytes had been transplanted, the replacement ratio was almost 0%, or untransplanted mice (mice with no replacement) were used (3 mice in each group). Further, as a control, 3 uPA(−/−)/SCID mice were used.
(§2) The concentration for administration of tolbutamide which is a standard drug for CYP2C9 was […]., and 4.175 mg of tolbutamide was weighed out and suspended in 1 ml of a CMC liquid in an agate mortar, and a 4.175 mg/ml suspension which is 5 times as high as the concentration for administration was prepared.
(§3) To the high-replacement chimeric mice, low-replacement chimeric mice (or mice with no replacement) and uPA(−/−)/SCID mice (3 mice in each group), 5 compounds were simultaneously administered orally by gavage or intravenously. The blood was collected from the tail vein of each mouse in an amount of 15 μl each at 0.25 (only intravenous administration), 0.5, 1, 2, 4 (only oral administration) and 8 hours after administration. Then, the blood was centrifuged at 3,500 rpm for 5 minutes, and the serum (supernatant) was collected and stored in a freezer at −30° C.
(§4) The serum samples were transported to Sumika Chemical Analysis Service, Ltd. while keeping it in dry ice, and subjected to measurement by LC-MS/MS according to the following procedure.
(§5) With regard to a liquid chromatograph, SIL-HTC and LC-10A series (Shimadzu Corporation) were used, and as a column, Synergi 4μ Polar-RP 80A, 150 mm (length)×2.00 mm (inner diameter), 4 μm (Phenomenex Inc.) was used at 30° C. As a mobile phase, methanol/a 10 mmol/l ammonium acetate solution/acetic acid (700/300/2, v/v/v) was used, and a flow rate was set at 0.2 ml/min. An injection volume was set at 2 μl, a measurement time was set at 10 min, and the temperature of an autosampler was set at 4° C. As a mass spectrometer, Tandem Mass Spectrometer API 4000 (Applied Biosystems/MDS SCIEX Inc.) was used. As API interface, Turbo V (ESI probe) was used, and as Ionization mode, Positive ion detection mode was used.
To Eppendorf tubes in which 5 μl of samples to be measured (serum) were contained, 100 μl of methanol was added, and 10 μl of 1 μg/ml of I.S. standard solution was added thereto, and then, the mixtures were thoroughly mixed by an ultrasonic treatment and a vortex mixer. […]
(§6) The determined values of the drug concentration in the serum were calculated from the peak area ratio obtained by the LC-MS/MS measurement of the samples for addition calibration curve. […] From the graphs, the peak serum concentration (Cmax), half-life (t1/2), area under the curve (AUC), bioavailability and clearance were analyzed, and pharmacokinetics in human was predicted.

in vivo = conditions: for t 1/2 Distribution phase / half-life / AUC / bioavailability / Cmax: mouse, in vivo
Source text: as §1, §2, §3, §4, §5
To Eppendorf tubes in which 5 μl of samples to be measured (serum) were contained, 100 μl of methanol was added, and 10 μl of 1 μg/ml of I.S. standard solution was added thereto, and then, the mixtures were thoroughly mixed by an ultrasonic treatment and a vortex mixer. The resulting mixtures were centrifuged (15,000 rpm, 5 min, room temperature), and the resulting supernatants were subjected to centrifugal filtration (10,000 rpm, 2 min, room temperature) with a filter, and the resulting filtrates were used as injection samples for LC-MS/MS.
as §6

CYP2D6 = experiment: in vivo; conditions: uPA(+/+)/SCID, po
Experimental: As for the chimeric mice, chimeric mice produced in PhoenixBio Co., Ltd. were used. To be more specific, 3 mice in which human hepatocytes were engrafted and proliferated in the mouse liver were produced by transplanting human hepatocytes (BD51, purchased from BD Gentist Inc.) into the spleen of uPA(+/+)/SCID mice, which are mice having hepatic impairment and immunodeficiency.
Paroxetine was dissolved in Milli-Q water (using a bath-type ultrasonic device) and prepared to give a final concentration of 6 mg/ml. The prepared drug was intraperitoneally administered to the mice at a dose of 5 μl/g b.w. (30 mg/kg b.w./day).
To the high-replacement chimeric mice, paroxetine was intraperitoneally administered for 3 days. Then, in the same manner as in Example 1, 5 compounds were simultaneously administered orally by gavage, the blood was collected over time, and the serum was stored.
The determination and analysis of drugs in the serum were carried out in the same manner as in Example 1.
The determined values of the drug concentration in the serum were calculated from the peak area ratio obtained by the LC-MS/MS measurement of the samples for addition calibration curve. […] From the graphs, Cmax, t1/2 and AUC were analyzed.

[2] = uPA(+/+)/SCID, po, t 1/2 Distribution phase
[3] = uPA(−/−)/SCID, iv, t 1/2 Distribution phase
[4] = uPA(−/−)/SCID, iv, t 1/2 Elimination phase

## Cn1c(=O)c2c(ncn2C)n(C)c1=O [Caffeine, caffeine]
[1]
  AUC in high-replacement chimeric mice compared with low-replacement chimeric mice: significantly lower
  AUC: 65700 ng·h/mL
In vivo; uPA(+/+)/SCID, iv
  t 1/2 Distribution phase: 0.437^#3 hr
In vivo; uPA(+/+)/SCID, iv, t 1/2 Distribution phase
  half-life: 0.809 h
In vivo; uPA(+/+)/SCID, po
  t 1/2 Distribution phase: 2.16^#3 hr
In vivo; [2]
  half-life: 3.45 h
In vivo; uPA(−/−)/SCID, iv
  AUC: 4070 ng·h/mL
In vivo; [3]
  half-life: 0.609 h
In vivo; [4]
  half-life: 0.505 h
In vivo; uPA(−/−)/SCID, po
  AUC: 33200 ng·h/mL
  bioavailability: 81.6%
  Cmax: 8800 ng/mL
In vivo; uPA(−/−)/SCID, po, t 1/2 Elimination phase
  half-life: 0.82 h
CYP2D6; mouse
  AUC: 97100 ng·h/mL
CYP2D6; mouse, t 1/2 Distribution phase
  half-life: 3.4 h

## COc1ccc2c(c1)[C@]13CCCC[C@@H]1[C@H](C2)N(C)CC3 [Dextromethorphan, dextromethorphan]
In vivo; donor hepatocytes IVT079
  AUC in high-replacement chimeric mice compared with low-replacement chimeric mice: significantly lower
In vivo; uPA(+/+)/SCID, iv, intravenous administration, high-replacement chimeric mouse, donor IVT079
  AUC: 4030 ng·h/mL
In vivo; uPA(+/+)/SCID, iv, intravenous administration, low-replacement chimeric mouse, donor IVT079
  AUC: 4600 ng·h/mL
In vivo; uPA(+/+)/SCID, iv, t 1/2 Distribution phase, intravenous administration, high-replacement chimeric mouse, donor IVT079, time window per footnote
  half-life: 3.15 h
In vivo; uPA(+/+)/SCID, iv, t 1/2 Distribution phase, intravenous administration, low-replacement chimeric mouse, donor IVT079, time window per footnote
  half-life: 0.414 h
In vivo; uPA(+/+)/SCID, iv, t 1/2 Elimination phase, intravenous administration, high-replacement chimeric mouse, donor IVT079, 2-8 hr
  half-life: 1.23 h
In vivo; uPA(+/+)/SCID, iv, t 1/2 Elimination phase, intravenous administration, low-replacement chimeric mouse, donor IVT079, 2-8 hr
  half-life: 1.5 h
In vivo; uPA(+/+)/SCID, po, oral administration, high-replacement chimeric mouse, donor IVT079
  AUC: 1020 ng·h/mL
In vivo; uPA(+/+)/SCID, po, oral administration, low-replacement chimeric mouse, donor IVT079
  AUC: 3650 ng·h/mL
In vivo; uPA(+/+)/SCID, po, high-replacement chimeric mouse, donor IVT079
  bioavailability: 2.53%
In vivo; uPA(+/+)/SCID, po, low-replacement chimeric mouse, donor IVT079
  bioavailability: 7.93%
In vivo; uPA(+/+)/SCID, po, oral administration, high-replacement chimeric mouse, donor IVT079, serum
  Cmax: 276 ng/mL
In vivo; uPA(+/+)/SCID, po, oral administration, low-replacement chimeric mouse, donor IVT079, serum
  Cmax: 836 ng/mL
In vivo; uPA(+/+)/SCID, po, t 1/2 Distribution phase, oral administration, high-replacement chimeric mouse, donor IVT079, time window per footnote
  half-life: 1.15 h
In vivo; uPA(+/+)/SCID, po, t 1/2 Distribution phase, oral administration, low-replacement chimeric mouse, donor IVT079, time window per footnote
  half-life: 2.88 h
In vivo; uPA(+/+)/SCID, po, t 1/2 Elimination phase, oral administration, high-replacement chimeric mouse, donor IVT079, time window per footnote
  half-life: 10.4 h
In vivo; uPA(+/+)/SCID, po, t 1/2 Elimination phase, oral administration, low-replacement chimeric mouse, donor IVT079, time window per footnote
  half-life: 9.98 h
In vivo; uPA(−/−)/SCID, iv, intravenous administration, uPA(−/−)/SCID mouse
  AUC: 2610 ng·h/mL
In vivo; uPA(−/−)/SCID, iv, t 1/2 Distribution phase, intravenous administration, uPA(−/−)/SCID mouse, time window per footnote
  half-life: 0.47 h
In vivo; uPA(−/−)/SCID, po, oral administration, uPA(−/−)/SCID mouse
  AUC: 580 ng·h/mL
In vivo; uPA(−/−)/SCID, po, uPA(−/−)/SCID mouse
  bioavailability: 2.22%
In vivo; uPA(−/−)/SCID, po, oral administration, uPA(−/−)/SCID mouse, serum, dose per drug in table
  Cmax: 130 ng/mL
In vivo; uPA(−/−)/SCID, po, t 1/2 Distribution phase, oral administration, uPA(−/−)/SCID mouse, time window per footnote
  half-life: 2.45 h
CYP2D6; in vivo
  AUC: 358 ng·h/mL
CYP2D6; in vivo, 30 mg/kg/day
  Cmax: 156 ng/mL
CYP2D6; in vivo, t 1/2 Distribution phase, high-replacement chimeric mouse, donor BD51, inhibitor paroxetine, time window per footnote
  half-life: 1.44 h
CYP2D6; in vivo, t 1/2 Elimination phase, high-replacement chimeric mouse, donor BD51, inhibitor paroxetine, time window per footnote
  half-life: 5.29 h

## CC[C@H]1OC(=O)[C@H](C)[C@@H](O[C@H]2C[C@@](C)(OC)[C@@H](O)[C@H](C)O2)[C@H](C)[C@@H](O[C@@H]2O[C@H](C)C[C@H](N(C)C)[C@H]2O)[C@](C)(O)C[C@@H](C)C(=O)[C@H](C)[C@@H](O)[C@]1(C)O [Erythromycin, erythromycin]
[1]
  AUC: 21300 ng·h/mL
In vivo; uPA(+/+)/SCID, po
  t 1/2 Distribution phase: 2.22^#3 hr
In vivo; [2]
  half-life: 4.38 h
In vivo; uPA(−/−)/SCID, iv
  AUC: 13800 ng·h/mL
In vivo; [3]
  half-life: 0.35 h
In vivo; [4]
  half-life: 1.1 h
In vivo; uPA(−/−)/SCID, po
  AUC: 4080 ng·h/mL
  bioavailability: 2.95%
  Cmax: 1000 ng/mL
